{"source": "patent US12678438B2", "about": "“Treatment of cancer with CDK inhibitors” (THE TRUSTEES OF THE UNIVERSITY OF PENNSYLVANIA, priority 2019, dated 2026)", "key": {"AR-negative cells": {"tested_on": "AR-negative cells", "assay": "Cell viability assay (Cell-Titer GLO), GI50", "format": "cell-based", "conditions": "Homo sapiens; three AR-negative cells, 96 h incubation", "experimental": "(§1) Cell viability assays were performed by seeding the cells in 96-well plates at 2500-10000 cells/well (optimum density for growth) in a total volume of 100 μL complete media. Serially diluted compounds/drugs in 100 μL media were added to the cells 24 h post seeding. Following 96 h incubation, cell viability was assessed by Cell-Titer GLO (Promega, PR G7571). The measurements were normalized and regression curves were fitted to calculate GI50 using GraphPad Prism software."}, "AR-dependent PCa lines": {"tested_on": "AR-dependent PCa lines", "assay": "Cell viability assay (Cell-Titer GLO), GI50", "format": "cell-based", "conditions": "Homo sapiens; five AR-dependent PCa lines, 96 h incubation", "experimental": "as §1"}, "p-MED1 (p-T1457 MED1)": {"tested_on": "p-MED1 (p-T1457 MED1)", "assay": "Immunoblot of p-MED1 in AR-positive PCa cell lines (VCaP, LNCaP, 22RV1)", "format": "cell-based, human", "experimental": "Cell lysates were prepared with RIPA buffer (Boston Bioproducts, BP-115DG)-10 mM Tris-HCl pH 7.5, 1 mM EDTA, 400 mM NaCl, 0.5% NP-40 and 1 mM DTT, supplemented with protease inhibitor cocktail (Pierce, A32965) and phosphatase inhibitor (Thermo, 1861280). For immunoblotting 200 μg total protein extract was boiled in sample buffer and 15-25 μg aliquots were separated by SDS-PAGE and transferred onto Polyvinylidene Difluoride membrane (GE Healthcare, IPVH00010). The membrane was incubated for one hour in blocking buffer [Tris-buffered saline, 0.1% Tween (TBS-T), 5% nonfat dry milk followed by overnight incubation on a rocker at 4° C. with the primary antibody. Following a wash with TBS-T, the blot was incubated with horseradish peroxidase-conjugated secondary antibody for 2 hrs on a rocker at room temperature. The blots were washed again and signals were visualized using enhanced chemiluminescence system as per manufacturer's protocol (GE Healthcare) or Kwik Quant Imager (Kindle Biosciences). Primary antibodies used in the immunoblotting (IB), immunoprecipitation (IP), and Chromatin Immunoprecipitation sequencing (ChIP-seq) assays are as follows: AR_IP, IB, ChIP-Seq (Millipore, 06-680); pS81-AR_IB (Millipore, 07-1375-EMD); RNA Pol II_IP, IB (Abcam, ab5408); ERG_IB (Abcam, a92513); PSA_IB (Dako, A0562); H3-acetyl K27_IP, IB, ChIP Seq (Abcam, ab32104) cPARP_IB (Cell Signaling Technology, 9541s); Cleaved caspase-3_IB (Cell Signaling Technology, 9664t); CDK7_IP, IB (Cell Signaling Technology, 2916s); CDK9_IP, IB (Cell Signaling Technology, 2316s); CDK12_IB (Cell Signaling Technology, 11973S); CDK13_IB (Sigma Cat. #ABE1860); Cyclin H_IB (Cell Signaling Technology, 2927T); HA_IP, IB (Cell Signaling Technology, 2367s); ERK1/2_IP, IB (Cell Signaling Technology, 9107s); phospho-ERK1/2_IB (Cell Signaling Technology, 9101s); phospho-Threonine_IB (Cell Signaling Technology, 9381s); PP2A alpha_IB (Abcam, ab32104); phospho-MED1_IB (Abcam, ab60950); Anti-GST_IB (Cell Signaling Technology, 2624); Anti-AKT_IB (Cell Signaling Technology, 9272); Anti-phosphoAKT_IB(Cell Signaling Technology, 4060); Anti-phospho-AR (Ser-515) _IB (Abeam, ab128250); Anti-RNA Pol 'LIB (Abeam, ab5408); Anti-phospho-pol II (Ser-5)_IB (Abeam, ab ab5095); Anti-phospho-CDK7 (Tlu-170) _IB (Millipore, ABS567); MED1_IP, IB, ChIP Seq (Bethyl, abA300-793A), Ki67_IHC (Cell Signaling Technology, 9661), and GAPDH (14C10), IB (Cell Signaling Technology, 3683s) for loading control."}, "[1]": {"tested_on": "MED1 and AR recruitment to the chromatin", "assay": "ChIP-seq of genome-wide MED1 and AR binding", "format": "cell-based, human", "conditions": "DHT-treated VCaP and LNCaP, THZ1", "experimental": "ChIP was performed using iDeal ChIP-seq Kit for Transcription Factors (Diagenode, C01010170) according to manufacturer's protocol. In brief, the cells were crosslinked with 1% formaldehyde in culture medium for 10 min at room temperature. Cross-linking was terminated by the addition of 1/10 volume 1.25 M glycine for 5 min at room temperature followed by cell lysis and sonication (Bioruptor, Diagenode), resulting in an average chromatin fragment size of 200 bp. Chromatin equivalent to 5×10^6 cells was isolated and incubated with 10 μg antibody overnight at 4° C. (MED1, H3-acetyl K27, AR, and IgG (Diagenode). ChIP-seq libraries were prepared from the ChIP-enriched DNA samples using the TruSeq ChIP Library Preparation Kit (Illumina, IP-202-1012, IP-202-1024) and protocol. In brief, ChIP-enriched DNA (1-10 ng) was converted to blunt-ended fragments. A single A-base was added to fragment ends followed by ligation of Illumina adaptors. The adaptor-modified DNA fragments were enriched by PCR using the Illumina Barcode primers and Phusion DNA polymerase. PCR products were size selected using 3% NuSieve agarose gels (Lonza) followed by gel extraction using QIAEX II reagents (QIAGEN). Libraries were quantified with the Bioanalyzer 2100 (Agilent) and sequenced on the Illumina NextSeq 500 Sequencer (75 nucleotide read length).\nSequencing reads were quality checked with FASTQC (www.bioinformatics.babraham.ac.uk/projects/fastqc) and aligned to the GRCh37 (release 27) genome using the STAR v2.5.1 aligner with default settings. PCR duplicate reads in the aligned bam files were removed using samtools, bam files were converted to CPM normalized bigwig tracks using deeptools, and viewed using the Integrated Genomics Viewer or the UCSC genome browser. Single end reads were extended up to the fragment length (200 bp) along the read direction.\nThe enrichment peaks for the various transcription factors and histone marks were computed using MACS2, with default settings. Regions found to ubiquitously enriched across a number of next-generation sequencing experiments, also known as the blacklisted peaks (sites.google.com/site/anshulkundaje/projects/blacklists), were excluded in all subsequent analysis."}, "AR-positive cells": {"tested_on": "AR-positive cells", "assay": "Long-term colony formation assay", "format": "cell-based, human", "conditions": "50 nM THZ1, 12-14 days", "experimental": "For the long-term colony formation assay, 10,000-50,000 cells/well in six-well plates (n=3) were seeded and treated with the required drugs/compounds or vehicle for 14 days. Media was refreshed every 4-5 days. Colonies were fixed and stained using 0.5% (w/v) crystal violet (Sigma, C0775) in 20% (v/v) methanol for 30 min, washed with distilled deionized water, and air-dried. To quantify staining, we washed the stained wells with 500 μL 10% acetic acid and using colorimetric assays determined the absorbance at 590 nm using a spectrophotometer (Synergy HT, BioTek Instruments, Vermont-USA)."}, "CDK7": {"biological_target": "CDK7 (Homo sapiens, UniProt P50613)", "sequence (P50613 whole entry)": "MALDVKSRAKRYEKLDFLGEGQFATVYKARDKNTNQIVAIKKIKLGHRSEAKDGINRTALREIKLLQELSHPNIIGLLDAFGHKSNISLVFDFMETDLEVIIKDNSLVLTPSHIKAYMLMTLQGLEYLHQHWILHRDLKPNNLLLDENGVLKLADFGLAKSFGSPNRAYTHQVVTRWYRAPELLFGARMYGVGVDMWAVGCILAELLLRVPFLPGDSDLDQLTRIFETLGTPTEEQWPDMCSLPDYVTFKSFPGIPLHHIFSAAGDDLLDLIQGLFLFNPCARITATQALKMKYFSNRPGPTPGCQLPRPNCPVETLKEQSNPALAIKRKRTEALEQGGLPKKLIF", "sequence (P51946 whole entry partner)": "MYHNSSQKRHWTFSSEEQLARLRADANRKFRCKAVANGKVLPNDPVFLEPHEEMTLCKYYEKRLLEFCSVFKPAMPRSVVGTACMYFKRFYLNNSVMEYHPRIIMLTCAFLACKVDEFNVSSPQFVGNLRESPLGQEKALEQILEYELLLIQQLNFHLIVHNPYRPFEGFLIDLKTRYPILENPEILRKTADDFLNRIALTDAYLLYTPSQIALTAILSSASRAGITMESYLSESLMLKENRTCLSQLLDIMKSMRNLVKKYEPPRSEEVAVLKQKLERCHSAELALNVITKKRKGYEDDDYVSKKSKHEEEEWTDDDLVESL", "sequence (P51948 whole entry partner)": "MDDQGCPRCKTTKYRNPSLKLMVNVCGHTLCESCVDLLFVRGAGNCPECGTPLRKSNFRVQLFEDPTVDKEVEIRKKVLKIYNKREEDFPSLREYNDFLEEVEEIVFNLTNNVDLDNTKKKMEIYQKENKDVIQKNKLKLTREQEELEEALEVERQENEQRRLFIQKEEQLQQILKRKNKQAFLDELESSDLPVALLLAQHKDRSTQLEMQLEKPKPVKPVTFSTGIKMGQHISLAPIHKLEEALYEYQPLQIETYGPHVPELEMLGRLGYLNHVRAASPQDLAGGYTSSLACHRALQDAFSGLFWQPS", "assay": "Luminescence-based CDK7 kinase activity on MED1 peptide", "format": "biochemical", "conditions": "varying concentration of THZ1", "description": "For luminescence-based CDK7 kinase activity analysis wild type MED1-peptide “[sequence]” and mutant MED1-peptide “[sequence]” (GenScript, U2051EC280_1, U2051EC280_3) were used. Following the above protocol, briefly after 60 min incubation, post addition of CAK complex, ADP-GLOW reagent (Promega, V6930) was thawed and 25 ul of the reagent was added to each well, the plate was covered with aluminum foil and incubated at room temperature (RT) for 45 min. After the incubation Kinase-Detection reagent (BPS Bioscience, 79603) was thawed and 50 ul of the reagent was added to each well and incubated for another 45 min at RT under dark conditions. After 45 min incubation luminescence was measured using the microplate reader (Note: in luminescence-based kinase assay, CAK-complex+CTD-peptide (BPS Bioscience)+ATP was used as a positive control, were as CAK complex+Human MED1 protein without ATP was used as a negative control to subtract the background readings)."}}, "data": [{"smiles": "CN(C)C/C=C/C(=O)Nc1ccc(C(=O)Nc2cccc(Nc3ncc(Cl)c(-c4c[nH]c5ccccc45)n3)c2)cc1", "note": "[THZ1]", "values": [{"measurement": "GI50", "setting": "AR-negative cells", "result": "0.4 to 0.6", "unit": "µM"}, {"measurement": "GI50", "setting": "AR-dependent PCa lines", "result": "0.05 to 0.17", "unit": "µM"}, {"measurement": "phosphorylation at Ser5 of RNA Pol II", "setting": "p-MED1 (p-T1457 MED1); VCaP and LNCaP, dose and time course", "result": "reduced phosphorylation at Ser5 of RNA Poll"}, {"measurement": "p-MED1 levels, dose and time course", "setting": "p-MED1 (p-T1457 MED1); VCaP and LNCaP, standard growth conditions", "result": "dose- and time-dependent decrease in p-MED1 levels"}, {"measurement": "p-MED1 levels", "setting": "p-MED1 (p-T1457 MED1); VCaP, LNCaP, 22RV1, standard culture conditions, 24 h (THZ1 and LDC also with DHT stimulation)", "result": "reduced p-MED1 levels"}, {"measurement": "genome-wide AR recruitment (ChIP-seq)", "setting": "[1]", "result": "significantly limited AR recruitment"}, {"measurement": "genome-wide MED1 recruitment (ChIP-seq)", "setting": "[1]", "result": "blocked MED1 recruitment entirely"}, {"measurement": "long-term colony formation", "setting": "AR-positive cells", "result": "severely inhibited long-term colony formation"}, {"measurement": "CDK7-mediated phosphorylation of the T1457 wildtype peptide", "setting": "CDK7", "result": "inhibited by THZ1 treatment in a dose-dependent manner"}]}]}
